Here are results for eleven compounds from patent US20110071199A1, “Thiophenyl Sulfonamides for the Treatment of Alzheimer's Disease” (Bristol-Myers Squibb Company, priority 2009, published 2011).

The subject of assay [1] is Aβ formation in H4 APP751 SWE clone 8.20 cells (H4 neuroglioma cell line stably expressing the Swedish mutant of APP751). Put plainly: Inhibition of Aβ formation in cultured cells. Format: cell-based. To be noted: for IC50: H4 APP751 SWE clone 8.20 cells, 19 hours incubation, Aβ40 or Aβ42 not specified. As for the experimental part:
Compounds were assayed for Aβ40 or Aβ42 inhibition in cells using H4 APP751 SWE clone 8.20, developed at Bristol-Myers Squibb, an H4 neuroglioma cell line stably expressing the Swedish mutant of APP751. Cells were maintained in log phase through twice weekly passage at a 1:20 dilution. For IC50 determinations, 30 μL cells (1.5×10^4 cells/well) in DMEM media containing 0.0125% BSA (Sigma A8412) were plated directly into 384-well compound plates (Costar 3709) containing 0.1 μL serially diluted compound in DMSO. Following incubation for 19 hours in 5% CO2 at 37° C., plates were briefly centrifuged (1000 rpm, 5 min). A 10 μL aliquot from each well was transferred to a second assay plate (Costar 3709) for Aβ40 measurements. Antibody cocktails were freshly prepared by dilution into 40 mM Tris-HCl (pH 7.4) with 0.2% BSA and added to assay plates. For Aβ42 measurements, antibodies specific for the Aβ42 neoepitope (565, developed at Bristol-Myers Squibb; conjugated to the Wallac reagent (Perkin Elmer)) and the N-terminal sequence of Aβ peptide (26D6, developed at SIBIA/Bristol-Myers Squibb; conjugated to APC (Perkin Elmer)) were mixed and 20 […] of the mixture was added to each well of the incubated cell plate yielding a final concentration of 0.8 ng/well 565 and 75 ng/well 26D6. For the Aβ40 measurements, antibodies specific for the Aβ40 neoepitope (TSD, developed at Bristol-Myers Squibb; conjugated to the Wallac reagent (Perkin Elmer)) and 26D6 as described above were mixed and 20 μL of the mixture was added to the 10 μL aliquots which had been removed previously from the cell plate yielding a final concentration of 1.6 ng/well TSD and 17.5 ng/well 26D6. Assay plates containing antibodies were sealed with aluminum foil and incubated overnight at 4° C. Signal was determined using a Viewlux counter (Perkin Elmer) and IC50 values determined using curve fitting in CurveMaster (Excel Fit based).

The next assay deals with brain Aβ40. Put plainly: Acute rat study, brain Abeta40 assay (252-TSD ELISA). The assay is classed as in vivo. The note with it: female Sprague-Dawley rats, single dose 10 mg/kg, oral gavage. As for the experimental part: (§1) Aβ species from animals were measured using sandwich ELISA assays. A brief discussion of these assays is included here since the details of the epitopes for the individual antibodies determines the Aβ species that are detected. Mouse and rat Aβ share a common Aβ sequence that differs from human Aβ. As a result of these sequence differences, antibodies that recognize the N-terminal region of human Aβ, such as 26D6, bind weakly to rodent Aβ. Likewise, antibodies that bind tightly to rodent Aβ, such as 252, bind weakly to human Aβ. Two assays were developed for measuring rodent Aβ40: 252-TSD and 4G8-TSD. The TSD-4G8 assay can measure not only Aβ40, but other BACE-γ-secretase cleavage products (Aβ11-40) and α-secretase-γ-secretase cleavage products (P3).
(§2) Dosing solutions were made once at the start of the study. Heating at 56° C. and sonication were used to solubilize compound in the dosing solution. All procedures were done in concordance with ACUC guidelines. Terminal blood samples were obtained by cardiac puncture after CO2 euthanasia and collected in EDTA tubes. Plasma was obtained after centrifugation. […]
Rat brain (half a hemisphere) was homogenized using a polytron at 4 mL/g in PBS, pH 7.8, 2% CHAPS, complete protease inhibitors (Roche). […] The bound 252-HRP antibody was detected using Pierce Supersignal Pico Chemiluminescent substrate for 10 minutes and quantified a Packard TopCount. […]
Background: In an ELISA, binding on a coated surface is turned into a signal by an enzyme label.

The test system of a further assay is plasma Aβ40. Description: Acute rat study, plasma Abeta40 assay (4G8-TSD ELISA). The assay is classed as in vivo. To be noted: female Sprague-Dawley rats, single dose 10 mg/kg, oral gavage. As for the experimental part:
as §1, §2
Plates were coated with TSD antibody and washed as for the brain Aβ40 assay. […] Samples were detected using 4G8-biotin (Signet) diluted 1:8000 in PBS, 0.05% Tween, 0.1% BSA for 1 hour. […] Detection and quantification were as for brain Aβ40 assays. […]

Each structure is given as a SMILES string.

Consider `NC(=O)[C@@H](CC1CC1)N(Cc1ccc(Br)cc1)S(=O)(=O)c1ccc(Cl)s1` [Example 1, (R)-2-(N-(4-bromobenzyl)-5-chlorothiophene-2-sulfonamido)-3-cyclopropylpropanamide], for which the IC50 (commonly the concentration at which inhibition is half-maximal) in assay [1] came out at 1.01 nM.

`NC(=O)[C@@H](CC1CC1)N(Cc1ccc(Br)cc1F)S(=O)(=O)c1ccc(Cl)s1` [Example 2, (R)-2-(N-(4-bromo-2-fluorobenzyl)-5-chlorothiophene-2-sulfonamido)-3-cyclopropylpropanamide]: in assay [1], the midpoint of inhibition, the IC50, lay at 0.52 nM. On the same count and under the same terms, to `NC(=O)[C@@H](CC1CC1)N(Cc1ccc(Br)c(F)c1)S(=O)(=O)c1ccc(Cl)s1` [Example 3, (R)-2-(N-(4-bromo-3-fluorobenzyl)-5-chlorothiophene-2-sulfonamido)-3-cyclopropylpropanamide] belongs 0.76 nM; to `NC(=O)[C@@H](CC1CC1)N(Cc1cc(F)c(Br)cc1F)S(=O)(=O)c1ccc(Cl)s1` [Example 4, (R)-2-(N-(4-bromo-2,5-difluorobenzyl)-5-chlorothiophene-2-sulfonamido)-3-cyclopropylpropanamide], 0.82 nM.

As to `NC(=O)[C@@H](CC1CC1)N(Cc1ccc(-c2ncon2)cc1)S(=O)(=O)c1ccc(Cl)s1` [Example 5, (R)-2-(N-(4-(1,2,4-oxadiazol-3-yl)benzyl)-5-chlorothiophene-2-sulfonamido)-3-cyclopropylpropanamide], in assay [1], the IC50 worked out at 0.51 nM. On the same count and under the same terms, to `NC(=O)[C@@H](CC1CC1)N(Cc1cc(F)c(Cl)cc1F)S(=O)(=O)c1ccc(Cl)s1` [Example 6, (R)-2-(5-chloro-N-(4-chloro-2,5-difluorobenzyl)thiaphene-2-sulfonamido)-3-cyclopropylpropanamide] belongs 1.49 nM. Take `NC(=O)[C@@H](CCC(F)(F)F)N(Cc1ccc(-c2ncon2)cc1F)S(=O)(=O)c1ccc(Cl)s1` [Example 7, (R)-2-(5-chloro-N-(2-fluoro-4-(1,2,4-oxadiazol-3-yl)benzyl)thiophene-2-sulfonamido)-5,5,5-trifluoropentanamide]: the “brain Aβ40, level as % of vehicle control” value with brain Aβ40 is 41 % of vehicle control. Moreover, in the assay on plasma Aβ40, the “plasma Aβ40, level as % of vehicle control” value is 47 % of vehicle control. This compound returned an IC50 in assay [1] of 0.29 nM. The “Aβ40 versus Aβ42 inhibition in cultured cells” value in assay [1] (cultured cells) is listed as “similarly inhibited”.

In turn, `NC(=O)[C@@H](CCC(F)(F)F)N(Cc1ccc(-c2ncco2)cc1F)S(=O)(=O)c1ccc(Cl)s1` [Example 9, (R)-2-(5-chloro-N-(2-fluoro-4-(oxazol-2-yl)benzyl)thiophene-2-sulfonamido)-5,5,5-trifluoropentanamide] gave an IC50 in assay [1] of 0.61 nM. In other words, the sub-nanomolar range. `NC(=O)[C@@H](CCC(F)(F)F)N(Cc1ccc(Br)cc1)S(=O)(=O)c1ccc(Cl)s1` [Example 10, (R)-2-(N-(4-bromobenzyl)-5-chlorothiophene-2-sulfonamido)-5,5,5-trifluoropentanamnide] registered an IC50 in assay [1] of 2.54 nM. In assay [1], `NC(=O)[C@@H](CCC(F)(F)F)N(Cc1ccc(Br)cc1F)S(=O)(=O)c1ccc(Cl)s1` [Example 11, (R)-2-(N-(4-bromo-2-fluorobenzyl)-5-chlorothiophene-2-sulfonamido)-5,5,5-trifluoropentanamide] had an IC50 of 1.06 nM. Turning to `NC(=O)[C@@H](CCC(F)(F)F)N(Cc1ccc(Br)c(F)c1)S(=O)(=O)c1ccc(Cl)s1` [Example 12, (R)-2-(N-(4-bromo-3-fluorobenzyl)-5-chlorothiophene-2-sulfonamido)-5,5,5-trifluoropentanamide], it took 2.98 nM to reach half-maximal inhibition in assay [1] (IC50).
